According to ChEMBL document CHEMBL6078648, “Prioritization of Eleven-Nineteen-Leukemia Inhibitors as Orally Available Drug Candidates for Acute Myeloid Leukemia” (J Med Chem, 2024):
Calls of active or inactive are those of the source. The rule behind the calls is not given here.

Assays:
[1] = biological target: T1, Protein ENL (Homo sapiens) (UniProt Q03111); experiment: Binding affinity to ENL YEATS domain (unknown origin) expressed in HEK293 cells incubated for 2 hrs by NanoBRET assay; assay type: cell-based
T1 sequence (whole entry): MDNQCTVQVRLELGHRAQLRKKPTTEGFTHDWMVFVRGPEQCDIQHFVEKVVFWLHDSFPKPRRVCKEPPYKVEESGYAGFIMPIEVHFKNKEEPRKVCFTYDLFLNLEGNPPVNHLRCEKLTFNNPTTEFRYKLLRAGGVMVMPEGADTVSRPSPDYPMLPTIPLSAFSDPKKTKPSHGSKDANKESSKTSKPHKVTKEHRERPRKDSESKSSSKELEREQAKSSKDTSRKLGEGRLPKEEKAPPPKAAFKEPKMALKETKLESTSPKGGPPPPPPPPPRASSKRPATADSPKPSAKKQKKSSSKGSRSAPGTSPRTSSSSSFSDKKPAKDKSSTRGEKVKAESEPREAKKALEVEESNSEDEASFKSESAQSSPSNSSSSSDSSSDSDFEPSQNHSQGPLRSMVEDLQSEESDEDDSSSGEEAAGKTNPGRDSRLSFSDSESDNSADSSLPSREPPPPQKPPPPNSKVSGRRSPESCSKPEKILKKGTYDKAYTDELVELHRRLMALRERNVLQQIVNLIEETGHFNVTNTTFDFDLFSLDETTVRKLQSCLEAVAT

[2] = test system: MOLM-13; experiment: Cytotoxicity against human MOLM-13 cells assessed as cell viability incubated for 8 days by CCK-8 assay; assay type: functional; conditions: for Activity: time 8.0 day; for CC50: MOLM-13, 192 h, time 8 day
[3] = test system: MOLM-13; experiment: Cytotoxicity against human MOLM-13 cells assessed as cell viability upto 100 uM incubated for 72 hrs by CCK-8 assay; assay type: functional, cell-based
[4] = test system: MV4-11; experiment: Cytotoxicity against human MV4-11 cells assessed as cell viability upto 100 uM incubated for 72 hrs by CCK-8 assay; assay type: functional, cell-based
[5] = test system: MV4-11; experiment: Cytotoxicity against human MV4-11 cells assessed as cell viability incubated for 8 days by CCK-8 assay; assay type: functional; conditions: for Activity: time 8.0 day; for CC50: MV4-11, 192 h, time 8 day
[6] = test system: Jurkat; experiment: Cytotoxicity against human Jurkat cells assessed as cell viability incubated for 8 days by CCK-8 assay; assay type: functional; conditions: 192 h, time 8 day
[7] = test system: Jurkat; experiment: Antiproliferative activity against human Jurkat cells assessed as reduction in cell proliferation at 1 uM measured upto 2 weeks; assay type: functional, cell-based
[8] = Cytotoxicity against human HEK293T cells assessed as cell viability incubated for 8 days by CCK-8 assay; assay type: toxicity, cell-based, HEK-293T; conditions: time 8 day
[9] = biological target: T1, Protein ENL (Homo sapiens); experiment: Inhibition of ENL YEATS domain (unknown origin) (1 to 148 residues) preincubated with compound for 1 hr followed by alpha-bead addition and measured after 30 mins under dark condition by Alphascreen assay; conditions: time 90.0 min
[10] = biological target: T1, Protein ENL (Homo sapiens); experiment: Binding affinity to ENL YEATS domain (unknown origin) (1 to 148 residues) expressed in HEK293 cells assessed as […] incubated for 2 hrs by NanoBRET assay; assay type: cell-based; conditions: dose <= 100.0 µM
[11] = Metabolic stability in human plasma assessed as parent compound remaining measured after 2 hrs by HPLC-MS/MS analysis; assay type: ADME, cell-free
[12] = Metabolic stability in human plasma assessed as parent compound remaining measured after 1 hrs by HPLC-MS/MS analysis; assay type: ADME, cell-free
[13] = Toxicity in NSG mouse implanted with human MOLM-13 assessed as animal survival at 400 mg/kg, po qd measured every 2 to 3 days and measured at day 15; assay type: organism-based; conditions: in vivo, 360 h, time 15 day
[14] = Toxicity in NSG mouse implanted with human MOLM-13 assessed as body weight loss at 400 mg/kg, po qd measured every 2 to 3 days and measured at day 15; assay type: organism-based; conditions: in vivo, 360 h, time 15 day
[15] = test system: MV4-11; experiment: Downregulation of MYC expression in human MV4-11 cells at 1 uM measured for 72 hrs by qRT-PCR analysis; assay type: functional, cell-based
[16] = test system: MV4-11; experiment: Downregulation of HOXA9 expression in human MV4-11 cells at 1 uM measured for 72 hrs by qRT-PCR analysis; assay type: functional, cell-based
[17] = test system: MOLM-13; experiment: Downregulation of MYB expression in human MOLM-13 cells at 1 uM measured for 72 hrs by qRT-PCR analysis; assay type: functional, cell-based
[18] = biological target: T1, Protein ENL (Homo sapiens); experiment: Binding affinity to ENL in human MV4-11 cells assessed as increase in protein thermal stabilization at 10 uM incubated for 3 to 6 hrs by CETSA analysis; assay type: cell-based; conditions: time 3-6 hrs
[19] = test system: MOLM-13; experiment: Downregulation of MEISI expression in human MOLM-13 cells at 1 uM measured for 72 hrs by qRT-PCR analysis; assay type: functional, cell-based
[20] = test system: HEK-293T; experiment: Cytotoxicity against HEK293T cells assessed as reduction in cell viability at 10 uM incubated for 8 days by CCK-8 assay; assay type: toxicity, cell-based; conditions: human, 192 h, time 8 day
[21] = test system: MV4-11; experiment: Induction of cell cycle arrest in human MV4-11 cells assessed as increase in accumulation of cells at G1 phase at 1 to 10 uM incubated for 72 hrs by PI staining based flow cytometric analysis; assay type: functional; conditions: dose 1-10 µM
[22] = Half life in CD-1 mouse at 20 mg/kg, iv measured upto 24 hrs by HPLC-MS/MS analysis; assay type: ADME, organism-based; conditions: in vivo
[23] = test system: MOLM-13; experiment: Downregulation of HOXA10 expression in human MOLM-13 cells at 1 uM measured for 72 hrs by qRT-PCR analysis; assay type: functional, cell-based
[24] = Toxicity in NSG mouse implanted with human MOLM-13 assessed as body weight loss at 200 mg/kg, po qd measured every 2 to 3 days; assay type: organism-based; conditions: in vivo, time 2-3 day
[25] = test system: MV4-11; experiment: Downregulation of MYB expression in human MV4-11 cells at 1 uM measured for 72 hrs by qRT-PCR analysis; assay type: functional, cell-based
[26] = test system: Jurkat; experiment: Cytotoxicity against human Jurkat cells assessed as reduction in cell viability at 16 uM incubated for 8 days by CCK-8 assay; assay type: functional, cell-based; conditions: time 8.0 day
[27] = test system: Jurkat; experiment: Cytotoxicity against human Jurkat cells assessed as cell viability incubated for 72 hrs by CCK-8 assay; assay type: functional
[28] = test system: MV4-11; experiment: Downregulation of HOXA10 expression in human MV4-11 cells at 1 uM measured for 72 hrs by qRT-PCR analysis; assay type: functional, cell-based
[29] = test system: MOLM-13; experiment: Downregulation of MYC expression in human MOLM-13 cells at 1 uM measured for 72 hrs by qRT-PCR analysis; assay type: functional, cell-based
[30] = test system: MV4-11; experiment: Downregulation of MEISI expression in human MV4-11 cells at 1 uM measured for 72 hrs by qRT-PCR analysis; assay type: functional, cell-based
[31] = test system: MOLM-13; experiment: Antitumor activity against human MOLM-13 cells xenografted in NSG mouse assessed as reduction in tumor burden at 400 mg/kg, po qd measured after 13 days; assay type: functional, organism-based; conditions: time 13.0 day
[32] = test system: MOLM-13; experiment: Downregulation of HOXA9 expression in human MOLM-13 cells at 1 uM measured for 72 hrs by qRT-PCR analysis; assay type: functional, cell-based
[33] = biological target: T1, Protein ENL (Homo sapiens); experiment: Binding affinity to ENL in human MOLM-13 cells assessed as increase in protein thermal stabilization at 10 uM incubated for 3 to 6 hrs by CETSA analysis; assay type: cell-based; conditions: time 3-6 hrs
[34] = test system: MOLM-13; experiment: Antitumor activity against human MOLM-13 cells xenografted in NSG mouse assessed as reduction in tumor growth at 200 mg/kg, po qd measured after 13 days; assay type: functional, organism-based; conditions: time 13.0 day
[35] = test system: MOLM-13; experiment: Induction of cell cycle arrest in human MOLM-13 cells assessed as increase in accumulation of cells at G1 phase at 1 to 10 uM incubated for 72 hrs by PI staining based flow cytometric analysis; assay type: functional; conditions: dose 1-10 µM
[36] = test system: Jurkat; experiment: Cytotoxicity against human Jurkat cells assessed as reduction in cell viability at 10 uM incubated for 8 days by CCK-8 assay; assay type: functional, cell-based; conditions: time 8.0 day
[37] = test system: HEK-293T; experiment: Cytotoxicity against HEK293T cells assessed as reduction in cell viability at 16 uM incubated for 8 days by CCK-8 assay; assay type: toxicity, cell-based; conditions: human, 192 h, time 8 day
[38] = Toxicity in NSG mouse implanted with human MOLM-13 assessed as tolerability at 200 mg/kg, po qd measured every 2 to 3 days; assay type: organism-based; conditions: in vivo, time 2-3 day
[39] = Metabolic stability in mouse liver microsome assessed as half life; assay type: ADME; conditions: liver microsomes
[40] = test system: MOLM-13; experiment: Antitumor activity against human MOLM-13 cells xenografted in NSG mouse at 400 mg/kg, po qd measured from 10 to 15 days; assay type: functional, organism-based; conditions: time 10-15 day
[41] = Toxicity in NSG mouse implanted with human MOLM-13 assessed as body weight loss at 200 mg/kg, po qd; assay type: organism-based; conditions: in vivo
[42] = Toxicity in NSG mouse implanted with human MOLM-13 assessed as tolerability at 200 mg/kg, po qd; assay type: organism-based; conditions: in vivo

Structure (SMILES): O=C(CCC1=[N+]2C(=Cc3ccc(-c4ccc[nH]4)n3[B-]2(F)F)C=C1)NCCCCSc1ccc(CNC(=O)c2ccc3nncn3c2)cc1
- Activity [1]: Active

Structure (SMILES): CSc1ccc(CNC(=O)c2ccc3nncn3c2)cc1
- Activity [2]: inactive
- Activity [3]: Active
- Activity [4]: Active
- Activity [5]: inactive

Structure (SMILES): CC(C)C1CCN1Cc1cc2cnc(NC(=O)c3ccc4nncn4c3)cc2[nH]1 (stereo unspecified)
- CC50 [2]: < 4 µM
- CC50 [6]: > 64 µM
- Activity [7]: inactive
- CC50 at 192 h [8]: > 64 µM
- CC50 [5]: < 4 µM

Structure (SMILES): O=C(NCc1ccc(CN2CCC2)cc1)c1ccc2nncn2c1
- inhibition [9]: Active

Structure (SMILES): O=C(CCC1=[N+]2C(=Cc3ccc(-c4ccc[nH]4)n3[B-]2(F)F)C=C1)NCCCC(=O)Nc1cccc(-c2cn3cc(C(=O)NC4CCC4)ccc3n2)c1
- Activity [10]: Dose-dependent-effect

Structure (SMILES): O=C(NCc1cccc(CN2CCC2)c1)c1ccc2nncn2c1
- Activity [2]: inactive
- Activity [3]: Active
- Activity [4]: Active
- Stability [11]: 94.94%
- Stability [12]: > 60%
- Activity [5]: inactive

Structure (SMILES): O=C(NCc1ccc(CNc2ncc(F)cn2)cc1)c1ccc2nncn2c1
- Activity [2]: inactive
- Activity [3]: Active
- Activity [4]: Active
- Activity [5]: inactive

Structure (SMILES): O=C(NCc1ccc(CN2CCOCC2)cc1)c1ccc2nncn2c1
- inhibition [9]: Active

Structure (SMILES): O=C(Nc1cc2[nH]c(CN3CCC3C3CC3)cc2cn1)c1ccc2nncn2c1 (stereo unspecified)
- Activity [7]: inactive
- CC50 at 192 h [8]: > 64 µM
- Stability [12]: > 60%

Structure (SMILES): CC(C)C1CCN1Cc1ccc(CNC(=O)c2ccc3nncn3c2)cc1 (stereo unspecified)
- Activity [13]: Non-toxic
- Activity [14]: Non-toxic
- Activity [15]: Active
- Activity [16]: Active
- Activity [17]: Active
- Activity [18]: Active
- Activity [19]: Active
- Activity [20]: Non-toxic
- Activity [21]: Active
- half-life [22]: 1.85 h
- Activity [23]: Active
- Activity [24]: Non-toxic
- Activity [25]: Active
- Activity [26]: Active
- CC50 [27]: > 64 µM
- Activity [28]: Active
- Activity [29]: Active
- Activity [30]: Active
- Activity [31]: Active
- Activity [3]: Active
- Activity [4]: Active
- Activity [7]: inactive
- Activity [32]: Active
- Activity [33]: Active
- Activity [34]: inactive
- Activity [35]: Active
- Activity [36]: Active
- Activity [37]: Non-toxic
- Activity [38]: Non-toxic
- Stability [11]: 95.58%
- Stability [12]: > 60%

Structure (SMILES): C[C@H]1CCCN1Cc1cc2cnc(NC(=O)c3ccc4nncn4c3)cc2[nH]1
- Activity [7]: inactive
- CC50 at 192 h [8]: > 64 µM
- Stability [12]: > 60%

Structure (SMILES): O=C(NC1CCC1)c1ccc2nc(-c3cccc(NS(=O)(=O)NCCN4CCCCC4)c3)cn2c1
- half-life [39]: 9.3 min

Structure (SMILES): CC1CCN1Cc1ccc(CNC(=O)c2ccc3nncn3c2)cc1 (stereo unspecified)
- Activity [2]: inactive
- Activity [3]: Active
- Activity [4]: Active
- Activity [5]: inactive

Structure (SMILES): O=C(NCc1ccc(CN2CCCCC2)cc1)c1ccc2nncn2c1
- inhibition [9]: Active

Structure (SMILES): CC(C)[C@H]1CCN1Cc1cc2cnc(NC(=O)c3ccc4nncn4c3)cc2[nH]1
- Activity [15]: Active
- Activity [16]: Active
- Activity [17]: Active
- Activity [18]: Active
- Activity [19]: Active
- Activity [21]: Active
- Activity [23]: Active
- Activity [24]: Non-toxic
- Activity [25]: Active
- Activity [28]: Active
- CC50 [2]: 1.25 µM
- Activity [29]: Active
- Activity [30]: Active
- Activity [40]: Active
- CC50 [6]: > 64 µM
- Activity [7]: inactive
- Activity [32]: Active
- Activity [33]: Active
- Activity [35]: Active
- Activity [38]: Non-toxic
- CC50 at 192 h [8]: > 64 µM
- Stability [11]: 94.54%
- Activity [41]: Non-toxic
- CC50 [5]: 0.81 µM
- Activity [42]: Non-toxic
